Source: patent US20210308196A1, “COMPOSITIONS AND METHODS TO PROMOTE HOST DEFENSE AND STIMULATE, EXPAND, AND/OR RESET T CELL REPERTOIRES” (EVOLVE BIOSYSTEMS, INC., priority 2018, published 2021)

Columns and labels:
[1] = system: human colonic mucin glycans; assay: Fecal glycome and colonic mucin-derived O-glycans (nano-HPLC-Chip-TOF MS); format: in vivo
From the text: A library of known mucin-specific O-glycans was compiled and used to query untargeted mass spectra of fecal samples.
Analysis of spectra obtained with nano-high performance liquid chromatography-chip/time-of flight mass spectrometry (nano-HPLC-Chip-TOF MS). […] Briefly, the HPLC system used was an Agilent 1200 series unit with a microfluidic chip, which was coupled to an Agilent 6220 series TOF mass spectrometer via chip cube interface. The capillary pump on the chromatography unit loaded the sample onto the 40-nL enrichment column at a flow rate of 4.0 μL/min with a 1-μL injection volume. A nano pump was used for analyte separation on the analytical column, which was […] and packed with porous graphitized carbon. Separation was accomplished using a binary gradient of aqueous solvent A (3% acetonitrile (ACN)/water (v/v) in 0.1% formic acid (FA)) and organic solvent B (90% ACN/water (v/v) in 0.1% FA) using a method developed for HMO separation. The sample was introduced into the TOF mass spectrometer via electrospray ionization, which was tuned and calibrated using a dual nebulizer electrospray source with calibrant ions ranging from m/z 118.086 to 2721.895, and data were collected in the positive mode. These untargeted spectra were reanalyzed in the present study.
Glycan data analysis. The untargeted mass spectra were collected (as above) and analyzed using Agilent MassHunter Work station Data Acquisition version B.02.01 on the nanoHPLC-chip/TOF (Frese et al 2017). The “Find Compounds by Molecular Feature” function of the software was used to identify mucin glycan species within 20 ppm of theoretical masses. Compound abundances were expressed as volume in ion counts that corresponded to absolute abundances of the compounds in each sample. 1HexNAc-1NeuAc, 1HexNAc-1Hex-NeuAc, 2HexNAc-1NeuAc, 2HexNAc-1Hex-1Fuc, 2HexNAc-1Hex-1NeuAc, 2HexNAc-1Hex-2Fuc, 3HexNAc-1Hex-1Fuc, 2HexNAc-1Hex-1Fuc-1NeuAc, 2HexNAc-1Hex-1Fuc-2NeuAc, 3HexNAc-1Hex-2NeuAc and 3HexNAc-1Hex-2Fuc-1NeuAc were monitored as they are discriminitively human colonic glycans. Robbe et al. (2004) Rapid Communications in Mass Spectrometry 18(4): 412-420.
Statistical analysis. Multiple t-tests were carried out with the Holm-Sidak correction in Graph Pad Prism 7 (GraphPad Software, La Jolla, Calif. USA). Pearson and Spearman correlational tests and principle component analyses were performed in R (v 3.4.2). Adonis test was carried out using a weighted UNIFRAC distance matrix (Lozupone et al 2011) in QIIME 1.9.1 (Caporaso et al 2010). […] The total oligosaccharide (OS) compositions of the samples were determined by the untargeted approach of nano-HPLC-Chip-TOF. The compounds were characterized using previously published libraries. Thomsson et al. (2002) Glycobiology 12(1): 1-14; Robbe et al. (2004) Rapid Communications in Mass Spectrometry 18(4): 412-420; Matamoros et al. (2013) Trends in Microbiology 21(4): 167-173; Karav et al. (2016) Applied and Environ. Micro. 82(12): 3622-3630. Among these compositions, free HMO (Frese et al. (2017) mSphere 2(6): e00501-e00517) and mucin OS were found in the infant fecal glycome. The degradation of human colonic mucin glycans by different gut microbiome profiles was determined as the difference between a B. infantis-dominated microbiome and microbiomes with more abundant mucolytic taxa, such as Bacteroidaceae. As target molecules, 1HexNAc-1NeuAc, 1HexNAc-1Hex-NeuAc, 2HexNAc-1NeuAc, 2HexNAc-1Hex-1Fuc, 2HexNAc-1Hex-1NeuAc, 2HexNAc-1 Hex-2Fuc, 3HexNAc-1Hex-1Fuc, 2HexNAc-1Hex-1Fuc-1NeuAc, 2HexNAc-1Hex-1Fuc-2NeuAc, 3HexNAc-1Hex-2NeuAc and 3HexNAc-1Hex-2Fuc-1NeuAc, were selected as typical human colonic mucin glycans, as shown by Robbe et al. (2004) Rapid Communications in Mass Spectrometry 18(4): 412-420.

[2] = Microbial short chain fatty acids by gas chromatography; format: in vivo, human; details: treatment group
From the text: Microbial production of short chain fatty acids (SCFA): SCFA can modulate intestinal inflammation by regulating epithelial barrier function. Microbial short chain fatty acids (SCFA) are extracted by methods previously described and analyzed by gas chromatography HD and found to be elevated in the treatment group

Substance: Bifidobacterium longum subsp. infantis EVC001 [B. infantis EVC001]
- Number of total OS structures (including isomers and anomers) ([1]; infant feces, FIG. 2A): 360.44±102.52
- Number of colonic mucin-derived O-glycan structures ([1]; infant feces, FIG. 2B): 6.33 (±2.24)
- Relative abundance of colonic mucin-derived O-glycans, number of structures ([1]; infant feces, FIG. 2C): 1.78%±0.385
- Colonic mucin-derived O-glycans, proportion of the total OS profile ([1]; infant feces, FIG. 2D): 1.68±1.12%
- Glycan 1_0_0_1 (1HexNAc-1NeuAc) Log10 Volume EVC001-fed [Mean (+/− SD)] ([1]; infant feces, neutral mass 512): 5.39
- Glycan 1_1_0_1 (1HexNAc-1Hex-1NeuAc) Log10 Volume EVC001-fed [Mean (+/− SD)] ([1]; infant feces, neutral mass 675): 4.01
- Glycan 2_0_0_1 (2HexNAc-1NeuAc) Log10 Volume EVC001-fed [Mean (+/− SD)] ([1]; infant feces, neutral mass 716): 0
- Glycan 2_1_1_0 (2HexNAc-1Hex-1Fuc) Log10 Volume EVC001-fed [Mean (+/− SD)] ([1]; infant feces, neutral mass 735): 0
- Glycan 2_1_0_1 (2HexNAc-1Hex-1NeuAc) Log10 Volume EVC001-fed [Mean (+/− SD)] ([1]; infant feces, neutral mass 878): 5.56
- Glycan 2_1_2_0 (2HexNAc-1Hex-2Fuc) Log10 Volume EVC001-fed [Mean (+/− SD)] ([1]; infant feces, neutral mass 879): 5.48
- Glycan 3_1_1_0 (3HexNAc-1Hex-1Fuc) Log10 Volume EVC001-fed [Mean (+/− SD)] ([1]; infant feces, neutral mass 936): 5.43
- Glycan 2_1_1_1 (2HexNAc-1Hex-1Fuc-1NeuAc) Log10 Volume EVC001-fed [Mean (+/− SD)] ([1]; infant feces, neutral mass 1024): 5.38
- Glycan 2_1_1_2 (2HexNAc-1Hex-1Fuc-2NeuAc) Log10 Volume EVC001-fed [Mean (+/− SD)] ([1]; infant feces, neutral mass 1315): 6.68
- Glycan 3_1_0_2 (3HexNAc-1Hex-2NeuAc) Log10 Volume EVC001-fed [Mean (+/− SD)] ([1]; infant feces, neutral mass 1372): 5.47
- Glycan 3_1_2_1 (3HexNAc-1Hex-2Fuc-1NeuAc) Log10 Volume EVC001-fed [Mean (+/− SD)] ([1]; infant feces, neutral mass 1373): 6.12
- Mucin degradation ([1]; supplemented infants compared to the control group): significantly less
- Microbial short chain fatty acids (SCFA) [2]: elevated
